The subject of series [1] is CCD 841 CoN cells. Details: method as in PMID 31883991. The note with it: colon mucosa CCD 841 CoN cells, MTT test; cited from earlier work. For orientation: Tetrazolium assays rely on reduction of a dye to a coloured formazan, in cell work by metabolically active cells.
Series [2] concerns caspase 3/7 activity in CCD 841 CoN cells. Nature of the series: Caspase 3/7 activity assay (APO-One Homogeneous). The series is classed as cell-based, human. The note with it: 40 μg/mL, 24 h. The protocol: CCD 841 CoN cells were grown in black 96-well plates at an initial cell density of 2 × 10^4 cells/cm^2 for 24 h under standard culture conditions. The cell cultures were treated for 24 h with ST, ST-OA, and ST-LA at a 40 μg/mL dose. After treatment, caspase-3/7 activity was determined using the APO-One Homogeneous Caspase-3/7 Assay (Promega Corporation, Wisconsin, USA), which is based on the proteolytic cleavage of C-terminal side of aspartate residue in the DEVD peptide substrate by caspase 3/7 into fluorescent rhodamine 110 (R110). Analysis of caspase 3/7 activity was carried out following the manufacturer's instructions. Briefly, the cells after the treatment were incubated at room temperature with Apo-ONE® Caspase-3/7 Reagent—bifunctional cell lysis/caspase activity buffer combined with the pro-fluorescent caspase-3/7 substrate Z-DEVD-R110. After 4-h incubation, fluorescence was measured at an excitation wavelength of 485 nm and an emission wavelength of 530 nm using a Tecan M200 Infinite microplate reader. Data obtained were normalized to cellular protein content, quantified by BCA assay (Pierce® BCA Protein Assay Kit, Thermo Scientific Inc., USA) according to the manufacturer's protocol.

Series [3] concerns CCD 841 CoN cells. Kind of series: DNA damage detection, comet assay (SCGE). The format is cell-based, human. The note with it: 40 μg/mL, 48 h. The protocol:
The cells were grown at 6-well plates at the established density and standard culture conditions and exposed to the non-heated and heated ST, ST-OA, and ST-LA for 48 h. The non-treated cells and cells treated with H2O2 (100 μM, 30 min) to induce oxidative DNA damage constituted the negative and positive controls, respectively. After treatment, cells were analyzed for DNA damage using a single cell gel electrophoresis (SCGE) called comet assay, described in detail previously. Briefly, harvested cells suspended in low melting point agarose were put onto microscope slides pre-coated with normal melting point agarose and subjected sequentially to lysis, alkaline electrophoresis (pH > 13), and neutralization ([…]). The cells were stained with SYBRGold (Molecular Probes), viewed under a fluorescence microscope (Axiovert 200, Zeiss, Carl Zeiss, Gottingen, Germany), and analyzed using CometScore™ software (TriTek Corp., Sumerduck, VA, USA). At least 100 cells were analyzed on a microscope slide; 300 cells were considered for DNA damage detection in one sample. Data were expressed as the mean percentage of DNA content in the comet tail. […] Based on the comets' categorization, the total comet score (TCS) was calculated according to the formula: TCS = 0(n) + 1(n) + 2(n) + 3(n) + 4(n), where “n” is the number of cells in each comet class (0–4)[45].

Series [4] relates to CCD 841 CoN cells. Nature of the series: MultiTox-Fluor Multiplex Cytotoxicity Assay (live and dead cell fluorescence). The format is cell-based. The protocol:
The normal human diploid CCD 841 CoN cell line (ATCC® CRL-1790™) isolated from colon mucosa was obtained from American Type Culture Collection (ATCC, Manassas, VA, USA). Cells were cultured in Dulbecco’s Modified Eagle’s Medium (DMEM, Sigma-Aldrich) supplemented with fetal bovine serum (FBS; Gibco BRL, Grand Island, NY, USA) to a final concentration of 10% and maintained at 37 °C in a humidified atmosphere with 5% CO2.
In the cytotoxicity experiments, CCD 841 CoN cells were seeded in 96-well plates at an initial density of 2.0 × 10^4 cells/cm^2 and incubated for 24 h. […] Control culture contained the vehicle at the amount corresponding to the sample analyzed.
The Multitox-Fluor Multiplex Cytotoxicity Assay (Promega GmbH, Mannheim, Germany) was applied to determine the relative number of live and dead cells in the CCD 841 CoN cell cultures treated with the analyzed compounds. The assay determined live- and dead-cell protease activities using two fluorogenic peptide substrates, cell-permeant (glycyl-phenylalanyl-amino fluorocoumarin; GF-AFC) and cell-impermeant (bis-alanyl-alanyl-phenylalanyl-rhodamine 110; bis-AAF-R110). After treatment, the cells were incubated with GF-AFC and bis-AAF-R110 substrates for 60 min at 37 °C. The live- and dead-cell proteases produced AFC and R110 products, measured using a Tecan M200 Infinite microplate reader (Tecan Group Ltd., Männedorf, Switzerland) at different excitation (400 nm and 485 nm) and emission (505 nm and 520 nm) spectra. The assay was conducted according to the manufacturer’s instructions.

On the set-up of series [5]: method as in PMID 31883991. The note with it: thermo-oxidative treatment; cited from earlier work.
Series [6] deals with S. typhimurium TA102. Kind of series: Bacterial reverse mutation assay (Ames test), strain TA102. The note with it: 40 μg/mL, regardless of metabolic activation (+/− S9). The protocol: Potential mutagenicity or pro-mutagenicity of non-heated and heated ST, ST-LA, and ST-OA was determined using the bacterial reverse mutation assay (Ames test) with Salmonella enterica subsp. enterica ser. typhimurium tester strains TA98, TA100, and TA102, which were obtained from the Polish Collection of Microorganisms of the Institute of Immunology and Experimental Therapy of the Polish Academy of Sciences in Wroclaw.
Mutagenicity experiments were performed in the liquid pre-incubation assay, without and with metabolic activation by supplying Aroclor 1254-induced rat liver microsomal fraction (S9, Sigma-Aldrich) with NADP and cofactors for NADPH-supported oxidation, according to the procedure described by Mortelmans and Zeiger[39]. Briefly, reaction mixtures, consisting of 12-h bacterial culture, non-heated and heated compound (ST, ST-LA, ST-OA) at a concentration of 40 μg, 0.2 M phosphate buffer (pH 7.4), and alternatively S9 activating mixture, were pre-incubated at 37 °C for 20 min. […] The mutagen, 2-aminoanthracene (5 μg) (Sigma-Aldrich), was a positive control in pro-mutagenicity experiments. After pre-incubation, the reaction mixtures were added to the top agar supplemented with traces of histidine and biotin and poured onto the plates covered with minimum glucose agar. The cultures were incubated for 48 h at 37 °C, and the number of revertants (His+) colonies was counted manually.
Compounds with MI ≥ 2 can be recognized as potentially mutagenic.
(In general: In the Ames test, an excess of revertant colonies over the control signals mutagenicity.)

The nature of series [7]: Thermo-oxidative treatment at 180 °C for 8 h, degradation of the compound. Particulars: heated at 180 °C for 8 h under oxygen atmosphere. The format is physicochemical. The protocol:
ST, ST-OA, and ST-LA (50 mg each) were placed separately in glass vials and heated at 180 °C for 8 h under an oxygen atmosphere. After thermo-oxidative treatment, the tested compounds were stored at − 20 °C until chemical and biological analyses. The non-heated and heated ST and its esters were analyzed to detect degradation products and oxyderivatives. Analytical methods were described in the article published previously.

With `CC[C@H](/C=C/[C@@H](C)[C@H]1CC[C@H]2[C@@H]3CC=C4C[C@@H](O)CC[C@]4(C)[C@H]3CC[C@]12C)C(C)C` [ST, Stigmasterol], the “half-maximal effective concentration (EC50), 50% decrease in cell viability” value in series [1] was 2.95 µg/mL. Further, the “caspase 3/7 activity” value in series [2] is “Boosted caspase 3/7 activity”. Also, in series [3], the “comets category 2 (medium DNA damage, 25 to 45% DNA in tail), share of cell population” value came out at 3.5% and the “total comet score (TCS), comet class distribution vs control” value is on record as “no significant differences”. Besides, in series [4] (1 μg/mL, first cytotoxic effects), the “decrease in the viable cell number” value is listed as 10%. The “reduction in number of viable cells / relative cell viability” value in series [4] (40 μg/mL, 48-h treatment) was “approximately 80%”. In addition, the “concentration at which first cytotoxic effects were observed” value in series [4] (48-h treatment) came out at 1000 ng/mL. The “degradation of ST molecule due to the heating process” value in series [5] was “approximately 80%”. Further, the “effect on TA102 revertants” value in series [6] was “did not affect the number of TA102 revertants”. In series [7], the “Sterol moiety depletion (%)” value is on record as 80.4 ± 13.5%.
